Non-standard residues stand in square brackets, D forms with d. Residues, ends and D or L forms follow the SMILES beside them. *: point of attachment. AllylGly = C=CC[C@H](N)C(=O)O; Acryloyl = C=CC(=O)*; NHBn = c1ccc(CN*)cc1; ClAc = O=C(CCl)*
System: SARS-CoV-2
Experiment: microbe, parasite or virus in culture
Conditions: Severe acute respiratory syndrome coronavirus 2, RG-2674 (Beta), Vero

Row | SMILES | EC50 [nM]
1 | CC(C)C(=O)OC[C@H]1O[C@@H](n2ccc(NO)nc2=O)[C@H](O)[C@@H]1O [MOLNUPIRAVIR] | 2810
2 | O=C(CS)N[C@@H](Cc1ccccc1)C(=O)N[C@@H](Cc1c[nH]c2ccccc12)C(=O)NCc1ccccc1 | > 100000
3 | CC(C)C[C@H](NC(=O)CCl)C(=O)N[C@@H](Cc1c[nH]c2ccccc12)C(=O)NCc1ccccc1 | 440
4 | CC(C)C[C@H](NC(=O)CCl)C(=O)N[C@@H](Cc1ccccc1)C(=O)N[C@@H](Cc1c[nH]c2ccccc12)C(=O)NCc1ccccc1 (ClAc-Leu-Phe-Trp-NHBn) | > 20000
5 | CC(C)C[C@@H](NC(=O)CCl)C(=O)N[C@@H](Cc1c[nH]c2ccccc12)C(=O)NCc1ccccc1 | 70
6 | COC(=O)[C@H](CC(C)C)NC(=O)[C@H](Cc1c[nH]c2ccccc12)NC(=O)CCl (ClAc-Trp-Leu-OMe) | > 4000
7 | CC(C)C[C@H](NC(=O)[C@H](Cc1c[nH]c2ccccc12)NC(=O)CCl)C(=O)NCc1ccccc1 (ClAc-Trp-Leu-NHBn) | 260
8 | C=CC(=O)N[C@@H](CC(C)C)C(=O)N[C@@H](Cc1c[nH]c2ccccc12)C(=O)NCc1ccccc1 | > 100000
9 | C=CC[C@H](NC(=O)CCl)C(=O)N[C@@H](Cc1c[nH]c2ccccc12)C(=O)NCc1ccccc1 (ClAc-[AllylGly]-Trp-NHBn) | 460
10 | COC(=O)[C@H](CCC(N)=O)NC(=O)[C@H](Cc1c[nH]c2ccccc12)NC(=O)[C@H](CC(C)C)NC(=O)CCl (ClAc-Leu-Trp-Gln-OMe) | > 100000
11 | O=C(CCl)N[C@@H](Cc1ccccc1)C(=O)N[C@@H](Cc1c[nH]c2ccccc12)C(=O)NCc1ccccc1 (ClAc-Phe-Trp-NHBn) | 70
12 | CCC(CC)COC(=O)[C@H](C)N[P@](=O)(OC[C@H]1O[C@@](C#N)(c2ccc3c(N)ncnn23)[C@H](O)[C@@H]1O)Oc1ccccc1 [REMDESIVIR] | 2400
13 | C=CC[C@H](NC(=O)CCl)C(=O)N[C@@H](CC=C)C(=O)N[C@H](CNCc1ccccc1)Cc1c[nH]c2ccccc12 | 2160
14 | C=CC[C@H](NC(=O)CCl)C(=O)N[C@@H](Cc1c[nH]c2ccccc12)C(=O)NCCN1CCOCC1 | 5900
15 | O=C(CCl)NCC(=O)N[C@@H](Cc1c[nH]c2ccccc12)C(=O)NCc1ccccc1 (ClAc-Gly-Trp-NHBn) | 70
16 | O=C(CCl)N[C@@H](Cc1ccc(O)cc1)C(=O)N[C@@H](Cc1c[nH]c2ccccc12)C(=O)NCc1ccccc1 (ClAc-Tyr-Trp-NHBn) | 3320
17 | CC(C)C[C@@H](C(=O)NCC12CC3CC(CC(C3)C1)C2)N(Cc1ccccc1)C(=O)CCl | > 4000
18 | C=CC(=O)N[C@@H](Cc1ccccc1)C(=O)N[C@@H](Cc1c[nH]c2ccccc12)C(=O)NCc1ccccc1 (Acryloyl-Phe-Trp-NHBn) | > 20000
19 | CC(C)C[C@H](NC(=O)CCl)C(=O)N[C@H](Cc1c[nH]c2ccccc12)C(=O)NCc1ccccc1 | 8930
